Laboratory results taken from doi:10.1101/2025.02.07.637162, “Lactate dehydrogenase is the Achilles’ heel of Lyme disease bacterium Borreliella burgdorferi” (bioRxiv, 2025).

How the values were obtained:
[1] = biological target: T1, BbLDH (BB_0087, lactate dehydrogenase) (Borreliella burgdorferi, UniProt O51114); assay: X-ray crystal structure, […] Å; allosteric activation of enzyme activity; format: binding
T1 construct: gene ldh; full-length, 316 residues

[2] = biological target: T1, BbLDH (BB_0087, lactate dehydrogenase); assay: X-ray crystal structure, […] Å; format: binding

T1 sequence (O51114 whole entry): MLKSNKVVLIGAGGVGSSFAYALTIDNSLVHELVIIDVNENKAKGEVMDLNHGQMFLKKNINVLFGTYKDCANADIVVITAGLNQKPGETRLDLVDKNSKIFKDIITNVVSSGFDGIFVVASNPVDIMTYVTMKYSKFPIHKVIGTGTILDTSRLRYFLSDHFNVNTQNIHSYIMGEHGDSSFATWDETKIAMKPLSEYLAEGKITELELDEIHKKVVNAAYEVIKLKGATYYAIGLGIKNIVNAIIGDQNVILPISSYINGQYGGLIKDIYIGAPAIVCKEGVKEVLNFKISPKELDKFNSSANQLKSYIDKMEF

Compound: O=P(O)(O)OC[C@H]1OC(O)(COP(=O)(O)O)[C@@H](O)[C@@H]1O (some centres unmarked) [FBP, fructose 1,6-bisphosphate]
- X-ray crystal structure, 2.1 Å; allosteric activation of enzyme activity [1]: Salt bridge and hydrogen bonding residues that interact with FBP in BbLDH (chain A and C, pink and yellow)

Compound: NC(=O)C1=CN([C@@H]2O[C@H](COP(=O)(O)OP(=O)(O)OC[C@H]3O[C@@H](n4cnc5c(N)ncnc54)[C@H](O)[C@@H]3O)[C@@H](O)[C@H]2O)C=CC1 [NADH]
- X-ray crystal structure, 2.1 Å [2]: Both structures were determined in the presence of NADH and the pyruvate analog oxamate (OXA)
